Assay results from patent US20110064680A1, “NATURALLY DERIVED WATERPROOFING AGENTS FOR AQUEOUS-BASED PERSONAL CARE PRODUCTS” (Pinova, Inc., priority 2009, published 2011).

Test: Solubility of solid sunscreen actives in the hydrogenated wood resins
Assay type: physicochemical
Settings: solvent: hydrogenated wood resins
From the text: During the making of the sunscreens, it was observed that the systems containing the hydrogenated wood resins more easily solubilzed the solid sunscreens (Oxybenzone and Avobenzone). […]

Row | solubility of these actives in the hydrogenated wood resins | SMILES
1 | 24% | COc1ccc(C(=O)c2ccccc2)c(O)c1 [Oxybenzone]
2 | 13% | COc1ccc(C(=O)CC(=O)c2ccc(C(C)(C)C)cc2)cc1 [Avobenzone]
